Results on 19 compounds are retold here after patent publication US20070049593A1 (priority 2004, published 2007).

Where a name gives a salt, the structure may show the parent alone.

The IC50 is the concentration needed to halve the response being measured.

The target of the first experiment is T1, HCV polymerase (Hepatitis C virus genotype 1b, UniProt P26663).
T1 construct: a region encoding NS5B (J Virol 1991 March, 65(3), 1105-13, 544 amino acids after deletion of 47 amino acids on the C-terminal); 6xHis (C); made in house; host or cells: Escherichia coli
T1 sequence (P26663 2420-2963): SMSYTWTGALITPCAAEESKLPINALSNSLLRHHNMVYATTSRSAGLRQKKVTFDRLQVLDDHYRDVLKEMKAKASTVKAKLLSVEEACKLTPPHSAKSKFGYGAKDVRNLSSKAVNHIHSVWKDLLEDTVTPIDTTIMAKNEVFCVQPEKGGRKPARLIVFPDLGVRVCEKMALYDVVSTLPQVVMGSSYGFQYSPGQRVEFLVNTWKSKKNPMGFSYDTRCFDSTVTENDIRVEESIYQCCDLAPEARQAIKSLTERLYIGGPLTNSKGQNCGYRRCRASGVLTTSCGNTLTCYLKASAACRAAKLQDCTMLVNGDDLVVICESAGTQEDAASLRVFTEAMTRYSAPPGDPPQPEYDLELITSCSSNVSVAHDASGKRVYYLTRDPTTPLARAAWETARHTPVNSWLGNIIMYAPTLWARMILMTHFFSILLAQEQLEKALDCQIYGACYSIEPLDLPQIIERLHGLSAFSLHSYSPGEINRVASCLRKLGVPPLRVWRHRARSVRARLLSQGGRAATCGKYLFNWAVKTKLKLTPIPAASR
As to the kind of experiment: biochemical. The arrangement: species or system HCV BK strain.
Conditions: not given
The procedure, abridged: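 Recombinant HCV BK-strain NS5B (C-terminal 47 aa deleted, His6-tagged, E. coli), 0.5 μg/ml, run with 5 μg/ml in vitro-transcribed RNA template (polyU/3′X), ATP/GTP/CTP 50 μM, UTP 2 μM plus [3H]UTP, pH 7.5, 25° C, 90 min. TCA-precipitated RNA counted by scintillation; IC50 from activity with vs without compound.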
As for `CCN(CC)CC(CN1CCn2c(c(C3CCCCC3)c3ccc(C(=O)O)cc32)-c2ccc(Cl)cc21)OC` (stereo not shown) [Example 1-441, 3-chloro-13-cyclohexyl-5-(3-diethylamino-2-methoxypropyl)-6,7-dihydro-5H-benzo[5,6][1,4]diazepino[7,1-a]indole-10-carboxylic acid dihydrochloride], the IC50 was below 0.1 µM.
`CCN(CCO)CCCN1CCn2c(c(C3CCCCC3)c3ccc(C(=O)O)cc32)-c2ccc(Cl)cc21` [Example 1-442, 3-chloro-13-cyclohexyl-5-{3-[N-ethyl-N-(2-hydroxyethyl)amino]propyl}-6,7-dihydro-5H-benzo[5,6][1,4]diazepino[7,1-a]indole-10-carboxylic acid dihydrochloride]: the half-maximal inhibitory concentration (IC50) is below 0.1 µM.
The same measure, in the same setting: as for `Cc1ccc2c(c1)N(CCN1CCC(CO)CC1)CCn1c-2c(C2CCCCC2)c2ccc(C(=O)O)cc21` [Example 1-443, 13-cyclohexyl-5-[2-(4-hydroxymethylpiperidin-1-yl)ethyl]-3-methyl-6,7-dihydro-5H-benzo[5,6][1,4]diazepino[7,1-a]indole-10-carboxylic acid dihydrochloride], the figure is below 0.1 µM.
The compound `O=C(O)c1ccc2c(C3CCCCC3)c3n(c2c1)CCN(CCN1CCC[C@@H](CCOc2ccccc2)C1)c1ccccc1-3` [Example 1-444, 13-cyclohexyl-5-{2-[(S)-3-(2-phenoxyethyl)piperidin-1-yl]ethyl}-6,7-dihydro-5H-benzo[5,6][1,4]diazepino[7,1-a]indole-10-carboxylic acid dihydrochloride] showed a concentration for half-maximal inhibition (IC50) below 0.1 µM.
`COCC[C@@H]1CCCN(CCN2CCn3c(c(C4CCCCC4)c4ccc(C(=O)O)cc43)-c3ccc(OC)cc32)C1` [Example 1-445, 13-cyclohexyl-3-methoxy-5-{2-[(S)-3-(2-methoxyethyl)piperidin-1-yl]ethyl}-6,7-dihydro-5H-benzo[5,6][1,4]diazepino[7,1-a]indole-10-carboxylic acid dihydrochloride] displayed an IC50 below 0.1 µM.
`CSc1ccc2c(c1)N(C)CCn1c-2c(C2CCCCC2)c2ccc(C(=O)NC3(C(=O)Nc4ccc(/C=C/C(=O)O)cc4)CCC3)cc21` [Example 1-450, (E)-3-[4-({1-[(13-cyclohexyl-5-methyl-3-methylsulfanyl-6,7-dihydro-5H-benzo[5,6][1,4]diazepino[7,1-a]indole-10-carbonyl)amino]cyclobutanecarbonyl}amino)phenyl]acrylic acid] displayed an IC50 below 0.1 µM.
On to `Cc1ccc2c(c1)N(CCN1CCCCC1)CCn1c-2c(C2CCCCC2)c2ccc(C(=O)O)c(Cl)c21` [Example 1-451, 9-chloro-13-cyclohexyl-3-methyl-5-[2-(piperidin-1-yl)ethyl]-6,7-dihydro-5H-benzo[5,6][1,4]diazepino[7,1-a]indole-10-carboxylic acid dihydrochloride], for which the IC50 is below 0.1 µM.
On the same count and under the same terms, as for `Cc1ccc2c(c1)N(C)CCn1c-2c(C2CCCCC2)c2ccc(C(=O)O)c(Cl)c21` [Example 1-452, 9-chloro-13-cyclohexyl-3,5-dimethyl-6,7-dihydro-5H-benzo[5,6][1,4]diazepino[7,1-a]indole-10-carboxylic acid], the figure is below 0.1 µM.
`CCN1CCn2c(c(C3CCCCC3)c3ccc(C(=O)O)cc32)-c2ccc(OC)cc21` [Example 1-474, 13-cyclohexyl-5-ethyl-3-methoxy-6,7-dihydro-5H-benzo[5,6][1,4]diazepino[7,1-a]indole-10-carboxylic acid] registered an IC50 below 0.1 µM.
In the case of `COc1ccc2c(c1)N(C(C)C)CCn1c-2c(C2CCCCC2)c2ccc(C(=O)O)cc21` [Example 1-475, 13-cyclohexyl-5-isopropyl-3-methoxy-6,7-dihydro-5H-benzo[5,6][1,4]diazepino[7,1-a]indole-10-carboxylic acid monohydrochloride], the IC50 is below 0.1 µM.
The compound `Cc1ccc2c(c1)N(CC(=O)N1CCCOCC1)CCn1c-2c(C2CCCCC2)c2ccc(C(=O)O)cc21` [Example 1-476, sodium salt of 13-cyclohexyl-3-methyl-5-[2-(1,4-oxazepan-4-yl)-2-oxoethyl]-6,7-dihydro-5H-benzo[5,6][1,4]diazepino[7,1-a]indole-10-carboxylic acid] displayed an IC50 below 0.1 µM.
On the same count and under the same terms, with `CCN1CCn2c(c(C3CCCCC3)c3ccc(C(=O)NC4(C(=O)Nc5ccc(/C=C/C(=O)O)cc5)CCC4)cc32)-c2ccc(OC)cc21` [Example 1-477, (E)-3-[4-({1-[(13-cyclohexyl-5-ethyl-3-methoxy-6,7-dihydro-5H-benzo[5,6][1,4]diazepino[7,1-a]indole-10-carbonyl)amino]cyclobutanecarbonyl}amino)phenyl]acrylic acid] the figure was below 0.1 µM.
Still for that read-out and setting: with `COc1ccc2c(c1)N(C(C)C)CCn1c-2c(C2CCCCC2)c2ccc(C(=O)NC3(C(=O)Nc4ccc(/C=C/C(=O)O)cc4)CCC3)cc21` [Example 1-478, (E)-3-[4-({1-[(13-cyclohexyl-5-isopropyl-3-methoxy-6,7-dihydro-5H-benzo[5,6][1,4]diazepino[7,1-a]indole-10-carbonyl)amino]cyclobutanecarbonyl}amino)phenyl]acrylic acid] the figure was below 0.1 µM; with `COCCN1CCn2c(c(C3CCCCC3)c3ccc(C(=O)O)cc32)-c2ccc(OC)cc21` [Example 1-479, 13-cyclohexyl-3-methoxy-5-(2-methoxyethyl)-6,7-dihydro-5H-benzo[5,6][1,4]diazepino[7,1-a]indole-10-carboxylic acid], below 0.1 µM; with `COc1ccc2c(c1)N(CCOC(C)C)CCn1c-2c(C2CCCCC2)c2ccc(C(=O)O)cc21` [Example 1-480, 13-cyclohexyl-5-(2-isopropoxyethyl)-3-methoxy-6,7-dihydro-5H-benzo[5,6][1,4]diazepino[7,1-a]indole-10-carboxylic acid], below 0.1 µM.
In turn, `COCCN1CCn2c(c(C3CCCCC3)c3ccc(C(=O)NC4(C(=O)Nc5ccc(/C=C/C(=O)O)cc5)CCC4)cc32)-c2ccc(OC)cc21` [Example 1-481, (E)-3-{4-[(1-{[13-cyclohexyl-3-methoxy-5-(2-methoxyethyl)-6,7-dihydro-5H-benzo[5,6][1,4]diazepino[7,1-a]indole-10-carbonyl]amino}cyclobutanecarbonyl)amino]phenyl}acrylic acid] registered an IC50 below 0.1 µM.
`COc1ccc2c(c1)N(CCOC(C)C)CCn1c-2c(C2CCCCC2)c2ccc(C(=O)NC3(C(=O)Nc4ccc(/C=C/C(=O)O)cc4)CCC3)cc21` [Example 1-482, (E)-3-{4-[(1-{[13-cyclohexyl-5-(2-isopropoxyethyl)-3-methoxy-6,7-dihydro-5H-benzo[5,6][1,4]diazepino[7,1-a]indole-10-carbonyl]amino}cyclobutanecarbonyl)amino]phenyl}acrylic acid] returned an IC50 below 0.1 µM.
In turn, `COc1ccc2c(c1)N(CC(C)C)CCn1c-2c(C2CCCCC2)c2ccc(C(=O)O)cc21` [Example 1-483, 13-cyclohexyl-5-isobutyl-3-methoxy-6,7-dihydro-5H-benzo[5,6][1,4]diazepino[7,1-a]indole-10-carboxylic acid] yielded an IC50 below 0.1 µM.

The experiment is the same for the next values; noted with them: 25° C., 90 min; [5,6-3H]UTP incorporation into RNA; read-out: HCV polymerase inhibitory activity IC50.
As for `COC(=O)C(Cc1ccc(O)cc1)NC(=O)c1ccc2c(C3CCCCC3)c3n(c2c1)CCN(C)c1cc(C)ccc1-3` [Example 1-473, methyl (S)-2-[(13-cyclohexyl-3,5-dimethyl-6,7-dihydro-5H-benzo[5,6][1,4]diazepino[7,1-a]indole-10-carbonyl)amino]-3-(4-hydroxyphenyl)propionate], the IC50 is below 0.1 µM.
